The values below come from patent US7482472B2, “Substituted isoindoles and their use” (Bayer Healthcare AG, priority 2002, dated 2009).

Molecules are shown by their SMILES. Structures can show the parent of a compound that is named as a salt.

The compound `O=C(Nc1cccc2c1C(=O)N(CCC(=O)N1CCN(c3ccncc3)CC1)C2)c1ccc(Cl)s1` (as salt: TFA) [Example 88] returned a melting point of 118 °C. The result for `O=C(Nc1cccc2c1C(=O)N(CCC(=O)N1CCN(c3ccncc3)CC1)C2=O)c1ccc(Cl)s1` [Example 5, 5-Chloro-N-(1,3-dioxo-2-{3-oxo-3-[4-(4-pyridinyl)piperazino]propyl}-2,3-dihydro-1H-isoindol-4-yl)-2-thiophenecarboxamide] reads 167 °C.

Compound `O=C(Nc1cccc2c1C(=O)N(CC(=O)N1CCN(c3cnccn3)CC1)C2=O)c1ccc(Cl)s1` [Example 6] gave a melting point of 237 °C. Take `O=C(Nc1cccc2c1C(=O)N(CC(=O)N1CCN(c3ccccn3)CC1)C2=O)c1ccc(Cl)s1` [Example 7]: the melting point amounted to 203 °C. The same measure for `Cc1cccc(N2CCN(C(=O)CN3C(=O)c4cccc(NC(=O)c5ccc(Cl)s5)c4C3=O)CC2)c1` [Example 8]: 136 °C; for `N#Cc1ccc(N2CCN(C(=O)CN3C(=O)c4cccc(NC(=O)c5ccc(Cl)s5)c4C3=O)CC2)nc1` [Example 9]: 169 °C (dec.). The result for `O=C(Nc1cccc2c1C(=O)N(CC(=O)N1CCN(c3cccc4[nH]ccc34)CC1)C2=O)c1ccc(Cl)s1` [Example 10] reads 209 °C; that for `O=C(Nc1cccc2c1C(=O)N(CC(=O)N1CCN(c3ncnc4sccc34)CC1)C2=O)c1ccc(Cl)s1` [Example 12], 277 °C. The same measure for `N#Cc1nccnc1N1CCN(C(=O)CN2C(=O)c3cccc(NC(=O)c4ccc(Cl)s4)c3C2=O)CC1` [Example 13]: 242 °C. The compound `Cc1cccc(N2CCN(C(=O)CN3C(=O)c4cccc(NC(=O)c5ccc(Cl)s5)c4C3=O)CC2)n1` [Example 14] had a melting point of 241 °C. The same measure for `CC(C)NC(=O)CN1CCN(C(=O)CN2C(=O)c3cccc(NC(=O)c4ccc(Cl)s4)c3C2=O)CC1` [Example 16]: 124 °C; for `CN(C)C(=O)CN1CCN(C(=O)CN2C(=O)c3cccc(NC(=O)c4ccc(Cl)s4)c3C2=O)CC1` [Example 17]: 189 °C. Compound `O=C(Nc1cccc2c1C(=O)N(CC(=O)N1CCN(CC(=O)N3CCCC3)CC1)C2=O)c1ccc(Cl)s1` [Example 19] displayed a melting point of 122 °C. In turn, `O=C(Nc1cccc2c1C(=O)N(CC(=O)N1CCN(CCCN3CCCCC3)CC1)C2=O)c1ccc(Cl)s1` [Example 20] gave a melting point of 104 °C. The result for `O=C(Nc1cccc2c1C(=O)N(CC(=O)N1CCN(CC(=O)N3CCOCC3)CC1)C2=O)c1ccc(Cl)s1` [Example 21] reads 230 °C. The same measure for `COCCN1CCN(C(=O)CN2C(=O)c3cccc(NC(=O)c4ccc(Cl)s4)c3C2=O)CC1` [Example 22]: 158 °C.

In the case of `O=C(Nc1cccc2c1C(=O)N(CC(=O)N1CCC(NCc3cccnc3)CC1)C2=O)c1ccc(Cl)s1` [Example 24], the melting point is 220 °C. The result for `Nc1cnccc1N1CCN(C(=O)CN2C(=O)c3cccc(NC(=O)c4ccc(Cl)s4)c3C2=O)CC1` [Example 27] reads 178 °C; that for `O=C(CN1C(=O)c2cccc(NC(=O)c3ccc(Cl)s3)c2C1=O)NCC1CCN(c2ccncc2)CC1` [Example 28], 256 °C. Consider `O=C(Nc1cccc2c1C(=O)N(CC(=O)N1CCN(c3ccc4c(c3)OCO4)CC1)C2=O)c1ccc(Cl)s1` [Example 32], for which the melting point was determined as 203 °C. As for `O=C(Nc1cccc2c1C(=O)N(CC(=O)N1CCC(CO)CC1)C2=O)c1ccc(Cl)s1` [Example 36, 5-Chloro-N-(2-{2-[4-(hydroxymethyl)piperidino]-2-oxoethyl}-1,3-dioxo-2,3-dihydro-1H-isoindol-4-yl)-2-thiophenecarboxamide], the melting point was found to be 198 °C. The same measure for `O=C(Nc1cccc2c1C(=O)N(C1CCN(c3ccncc3)CC1)C2=O)c1ccc(Cl)s1` [Example 63, 5-Chloro-N-{1,3-dioxo-2-[1-(4-pyridinyl)-4-piperidinyl]-2,3-dihydro-1H-isoindol-4-yl}-2-thiophenecarboxamide]: 214 °C; for `O=C(Nc1cccc2c1C(=O)N(CC(=O)N1CCC(CO)CC1)C2O)c1ccc(Cl)s1` (stereo not shown) [Example 89]: 233 °C; for `O=C(Nc1cccc2c1C(O)N(CC(=O)N1CCC(CO)CC1)C2=O)c1ccc(Cl)s1` (stereo not shown) [Example 90]: 234 °C (dec.). The same measure for `O=C(Nc1cccc2c1CN(CC(=O)N1CCC(CO)CC1)C2=O)c1ccc(Cl)s1` [Example 92]: 209 °C.
